Series [1] is described as follows: MTT-based cytotoxicity assay. The note with it: human, C8166 cells, concentration causing 50% reduction in total C8166 cell number, means of two separate experiments, read-out: CC50 (50% cytotoxic concentration). On the procedure:
(§1) Cell line (C8166) and the laboratory-derived virus (HIV-1IIIB) were obtained from MRC, AIDS Reagent Project, London, UK. C8166 was maintainedin RPMI-1640 supplemented with 10% heat-inactivated newborn calf serum (Gibco, Grand Island, NY, USA). The cells used in all experiments were in log-phase growth. The 50% HIV-1IIIB tissue culture infectious dose (TCID50) in C8166 cells was determined and calculated by the Reed and Muench method. Virus stocks were stored in small aliquots at −70 °C.
Cellular toxicity of 2-alkyl-2-(N-arylsulfonylindol-3-yl)-3-N-acyl-5-aryl-1,3,4-oxadiazolines 3s–r′ on C8166 cells was assessed by MTT method as described previously. Briefly, cells were seeded on 96-well microtiter plate in the absence or presence of various concentrations of 2-alkyl-2-(N-arylsulfonylindol-3-yl)-3-N-acyl-5-aryl-1,3,4-oxadiazolines in triplicate and incubated at 37 °C in a humid atmosphere of 5% CO2 for 3 day. The supernatants were discarded and MTT reagent (5 mg/mL in PBS) was added to each wells, then incubated for 4 h, 100 μL of 50% N,N-dimethylformamide (DMF)-20% SDS was added. After the formazan was dissolved completely, the plates were read on a Bio-TekElx800 ELISA reader (BioTek, Winooski, VT, USA) at 595/630 nm. The cytotoxic concentration that caused the reduction of viable C8166 cells by 50% (CC50) was determined from dose–response curve.

Series [2] relates to HIV-1IIIB. In words: Syncytia assay (anti-HIV-1 activity). Type of series: cell-based. The note with it: Human immunodeficiency virus 1, 72 h; concentration reducing syncytia formation by 50%; C8166 cells infected with HIV-1IIIB, M.O.I 0.06, 3 days; means of two separate experiments; read-out: EC50 (50% effective concentration). As for the experimental part: as §1
In the presence of 100 μL various concentrations of 2-alkyl-2-(N-arylsulfonylindol-3-yl)-3-N-acyl-5-aryl-1,3,4-oxadiazolines, C8166 cells (4 × 10^5/mL) were infected with virus HIV-1IIIB at a multiplicity of infection (M.O.I) of 0.06. The final volume per well was 200 μL. Control assays were performed without the testing compounds in HIV-1IIIB infected and uninfected cultures. After 3 days of culture, the cytopathic effect (CPE) was measured by counting the number of syncytia. Percentage inhibition of syncytia formation was calculated and 50% effective concentration (EC50) was calculated. AZT (Sigma-Aldrich, St. Louis, MO, USA) was used as a positive control. Therapeutic index (TI) = CC50/EC50.

Data on 21 compounds can be found in article PMC6278315, “Microwave-Assisted Expeditious Synthesis of 2-Alkyl-2-(N-arylsulfonylindol-3-yl)-3-N-acyl-5-aryl-1,3,4-oxadiazolines Catalyzed by HgCl2 under Solvent-Free Conditions as Potential Anti-HIV-1 Agents” (Molecules, 2018).

Values after ≈ are worked out from the molar mass of the structure shown.

Broadly, the melting point is the temperature of the solid-liquid transition. As to `CC(=O)N1N=C(c2ccccc2)OC1(C)c1cn(S(=O)(=O)c2ccc(Cl)cc2)c2ccc(C#N)cc12` (stereo not drawn) [3a′, 2-Methyl-2-(N-p-chlorobenzenesulfonyl-5-cyanoindol-3-yl)-3-N-acetyl-5-phenyl-1,3,4-oxadiazolines], the melting point is 128 to 130 °C. Also, the CC50 at 3 day in series [1] was found to be 113 µg/mL (≈ 218 µM). In series [2], the EC50 was 3.63 µg/mL (≈ 6.99 µM).
Take `CC(=O)N1N=C(c2ccccc2)OC1(C)c1cn(S(=O)(=O)c2ccc(C)cc2)c2ccc([N+](=O)[O-])cc12` (stereo not drawn) [3b′, 2-Methyl-2-(N-p-methylbenzenesulfonyl-5-nitroindol-3-yl)-3-N-acetyl-5-phenyl-1,3,4-oxadiazolines]: the melting point lay within 110 to 112 °C. The CC50 at 3 day in series [1] was found to be 133 µg/mL (≈ 256 µM). For the same compound, the EC50 in series [2] is 9.54 µg/mL (≈ 18.4 µM).
In turn, `CC(=O)N1N=C(c2ccccc2)OC1(C)c1cn(S(=O)(=O)c2ccc(Cl)cc2)c2ccc([N+](=O)[O-])cc12` (stereo not drawn) [3c′, 2-Methyl-2-(N-p-chlorobenzenesulfonyl-5-nitroindol-3-yl)-3-N-acetyl-5-phenyl-1,3,4-oxadiazolines] gave a melting point of 108 to 110 °C. The CC50 at 3 day in series [1] was determined as 53.4 µg/mL (≈ 99.1 µM). For the same compound, in series [2], the EC50 was 6.01 µg/mL (≈ 11.2 µM).
In the same order, the values of `CCC1(c2cn(S(=O)(=O)c3ccccc3)c3ccccc23)OC(c2ccccc2)=NN1C(C)=O` (stereo not drawn) [3d′, 2-Ethyl-2-(N-benzenesulfonylindol-3-yl)-3-N-acetyl-5-phenyl-1,3,4-oxadiazolines] are 224 to 226 °C, 105 µg/mL (≈ 222 µM) and 20.3 µg/mL (≈ 42.9 µM).
On to `CC(=O)N1N=C(c2ccccc2)OC1c1cn(S(=O)(=O)c2ccc(C)cc2)c2ccccc12` (stereo not drawn) [3e′], for which, in series [1], the CC50 at 3 day was 15.1 µg/mL (≈ 32.8 µM). Besides, the EC50 in series [2] worked out at 15.5 µg/mL (≈ 33.8 µM).
In the same order, the values of `CC(=O)N1N=C(c2ccccc2)OC1c1cn(S(=O)(=O)c2cccc([N+](=O)[O-])c2)c2ccccc12` (stereo not drawn) [3f′] are 43.5 µg/mL (≈ 88.6 µM) and 1.79 µg/mL (≈ 3.65 µM).
With `CC(=O)N1N=C(c2ccccc2)OC1c1cn(S(=O)(=O)c2ccc(C)cc2)c2cc(C)ccc12` (stereo not drawn) [3g′], in series [1], the CC50 at 3 day came out at 80.8 µg/mL (≈ 171 µM). For the same compound, the EC50 in series [2] was 22.5 µg/mL (≈ 47.5 µM).
With `CC(=O)N1N=C(c2ccccc2)OC1c1cn(S(=O)(=O)c2ccc(Cl)c([N+](=O)[O-])c2)c2ccccc12` (stereo not drawn) [3h′], the CC50 at 3 day in series [1] was determined as 4.8 µg/mL (≈ 9.14 µM). In series [2], the EC50 turned out to be 3.53 µg/mL (≈ 6.72 µM).
In the case of `CC(=O)N1N=C(c2ccccc2)OC1c1cn(S(=O)(=O)c2cccc([N+](=O)[O-])c2)c2cc(C)ccc12` (stereo not drawn) [3i′], the CC50 at 3 day in series [1] came to 20.2 µg/mL (≈ 40 µM). Further, the EC50 in series [2] was 0.51 µg/mL (≈ 1.01 µM).
On the same counts, the results for `CC(=O)N1N=C(c2ccccc2)OC1c1cn(S(=O)(=O)c2ccc(Cl)c([N+](=O)[O-])c2)c2cc(C)ccc12` (stereo not drawn) [3j′] are 2.26 µg/mL (≈ 4.19 µM) and 12.4 µg/mL (≈ 23 µM).
Consider `CC(=O)N1N=C(c2ccccc2)OC1c1cn(S(=O)(=O)c2ccc(Cl)cc2)c2ccccc12` (stereo not drawn) [3k′], for which, in series [1], the CC50 at 3 day was determined as 16.6 µg/mL (≈ 34.5 µM). For the same compound, in series [2], the EC50 turned out to be 19.4 µg/mL (≈ 40.4 µM).
With `CC(=O)N1N=C(c2ccccc2)OC1c1cn(S(=O)(=O)c2ccc(Cl)cc2)c2cc(C)ccc12` (stereo not drawn) [3l′], in series [1], the CC50 at 3 day is 182 µg/mL (≈ 368 µM). Besides, the EC50 in series [2] worked out at 57.5 µg/mL (≈ 116 µM).
On to `COc1ccc(S(=O)(=O)n2cc(C3OC(c4ccccc4)=NN3C(C)=O)c3ccccc32)cc1` (stereo not drawn) [3m′], for which the CC50 at 3 day in series [1] is 12.3 µg/mL (≈ 25.9 µM). Besides, the EC50 in series [2] worked out at 22.5 µg/mL (≈ 47.3 µM).
In the same order, the values of `COc1ccc(S(=O)(=O)n2cc(C3OC(c4ccccc4)=NN3C(C)=O)c3ccc(C)cc32)cc1` (stereo not drawn) [3n′] are 11.2 µg/mL (≈ 22.9 µM) and 16.6 µg/mL (≈ 33.8 µM).
Regarding `CC(=O)N1N=C(c2ccccc2)OC1c1cn(S(=O)(=O)c2ccc(C)cc2)c2ccc(C#N)cc12` (stereo not drawn) [3o′], the CC50 at 3 day in series [1] worked out at 152 µg/mL (≈ 313 µM). Further, the EC50 in series [2] turned out to be 18.1 µg/mL (≈ 37.4 µM).
On the same counts, the results for `CC(=O)N1N=C(c2ccccc2)OC1c1cn(S(=O)(=O)c2cccc([N+](=O)[O-])c2)c2ccc(C#N)cc12` (stereo not drawn) [3p′] are 135 µg/mL (≈ 262 µM) and 63.8 µg/mL (≈ 124 µM).
Consider `CCC(=O)N1N=C(c2ccccc2)OC1c1cn(S(=O)(=O)c2ccc(C)cc2)c2ccccc12` (stereo not drawn) [3q′], for which the CC50 at 3 day in series [1] is 78 µg/mL (≈ 165 µM). Moreover, in series [2], the EC50 was 3 µg/mL (≈ 6.34 µM).
Consider `CCC(=O)N1N=C(c2ccccc2)OC1c1cn(S(=O)(=O)c2ccc(C)cc2)c2ccc(C#N)cc12` (stereo not drawn) [3r′], for which the CC50 at 3 day in series [1] came to 98.3 µg/mL (≈ 197 µM). The EC50 in series [2] turned out to be 4.01 µg/mL (≈ 8.04 µM).
The compound `CC(=O)N1N=C(c2ccccc2)OC1(C)c1cn(S(=O)(=O)c2ccccc2)c2cc(C)ccc12` (stereo not drawn) [3y, 2-Methyl-2-(N-benzenesulfonyl-6-methylindol-3-yl)-3-N-acetyl-5-phenyl-1,3,4-oxadiazolines] gave a melting point of 142 to 144 °C. In addition, in series [1], the CC50 at 3 day was over 200 µg/mL. Besides, the EC50 in series [2] turned out to be 6.12 µg/mL (≈ 12.9 µM).
With `CC(=O)N1N=C(c2ccccc2)OC1(C)c1cn(S(=O)(=O)c2ccccc2)c2ccc(C#N)cc12` (stereo not drawn) [3z, 2-Methyl-2-(N-benzenesulfonyl-5-cyanoindol-3-yl)-3-N-acetyl-5-phenyl-1,3,4-oxadiazolines], the melting point fell in the range of 208 to 210 °C. The CC50 at 3 day in series [1] was found to be 53 µg/mL (≈ 109 µM). Also, the EC50 in series [2] was 17.6 µg/mL (≈ 36.3 µM).
For `Cc1cn([C@H]2C[C@H](N=[N+]=[N-])[C@@H](CO)O2)c(=O)[nH]c1=O` [AZT, 3′-azido-3′-deoxythymidine, reference compound], the CC50 at 3 day in series [1] turned out to be 1370 µg/mL (≈ 5140 µM). Further, the EC50 in series [2] came out at 0.00199 µg/mL (≈ 0.00745 µM).
